The source of these data is patent US20170305882A1, “BENZYL SUBSTITUTED INDAZOLES AS BUB1 KINASE INHIBITORS” (Bayer Pharma Aktiengesellschaft, priority 2014, published 2017).

Some results are limits rather than exact numbers.

Assay [1] has as its system pre-induced phospho-histone 2A (kinase activity of Bub1). Kind of assay: H2A Abrogation-Assay (cell-based mechanistic assay, pre-treatment with Nocodazole). The settings on record: Nocodazole 16 h, then test compound 1 h; read-out: Biological Assay 4:2: H2A Abrogation IC50. An excerpt:
Biological Assay 4.2: Abrogation-Assay
This assay measures the inhibition of histone 2A phosphorylation, which was induced by pre-treatment of the cells with Nocodazole, by a Bub1 kinase inhibitor.

Assay [2] deals with HeLa human cervical tumor cells. Kind of assay: Proliferation assay (HeLa cell line). Format: cell-based. The settings on record: 96 h, 4 days incubation, crystal violet, read-out: Biological Assay 2: Proliferation assay (HeLa cell line) median IC50. An excerpt:
Human tumour cells were originally obtained from the American Type Culture Collection (ATCC), the Deutsche Sammlung von Mikroorganismen und Zellkulturen (DSMZ, German Collection of Microorganisms and Cell Cultures), or Epo GmbH Berlin.

Assay [3] has the same test system. Kind of assay: Proliferation Assay (HeLa + Paclitaxel). Format: cell-based. Particulars: 3 nM paclitaxel, test substance 92 hours; read-out: Biological Assay 3: Proliferation Assay (HeLa + Paclitaxel) IC50. An excerpt: Proliferation Assay (HeLa+Paclitaxel):
Assay [4] has as its system histone 2A phosphorylation (kinase activity of Bub1). Put plainly: H2A Formation-Assay (cell-based mechanistic assay, co-treatment with Nocodazole). The settings on record: 16 h, read-out: Biological Assay 4.1: H2A Formation IC50.
Protocol: Cell-Based Mechanistic Assay: Changes of Phosphorylation Status of Histone 2A by Inhibition of Kinase Activity of Bub1
This assay determines the suppression of histone 2A phosphorylation by a Bub1 kinase inhibitor during co-treatment with Nocodazole. 25000 cells (cells were ordered from ATCC) were seeded in 96well plate for 5 h at 37° C. Cells were treated with Nocodazole (1 μg/ml) and varying concentrations (between 3 nM and 10 μM) of test compounds for 16 h. Cells were fixed (20 min, Fixing solution R&D), washed three times with PBS and blocked with Odyssey blocking buffer before incubating with the primary antibody against phosphorylated H2A (5 μg/ml ABIN482721) overnight at 2-8° C. After washing, secondary IRDye-labeled antibody mix with cell stains was added for 1 h and washed again with PBS. Plates were scanned with LICor Odyssey Infrared Imager CLx at 800 nm for P-H2A and at 700 nm for cell stains Draq5/Sapphire. The quotient of 800 nm and 700 nm for Nocodazole only treated cells was set as 100% and the quotient of 800 nm and 700 nm of untreated cells was set as 0%. […] The IC50 values were determined by means of a 4 parameter fit.
Assay [5] deals with T1, (recombinant) catalytic domain of human Bub1 (amino acids 704-1085) (Homo sapiens, UniProt O43683).
T1 construct: catalytic domain of human Bub1 (amino acids 704-1085); 6xHis (N); made in house; host or cells: Hi5 insect cells
Kind of assay: Bub1 kinase assay (TR-FRET). Format: biochemical. The settings on record: ATP 10 μM, 60 min reaction, pH 7.5; read-out: Biological Assay 1: Bub1 kinase assay median IC50.

T1 sequence (O43683 704-1085): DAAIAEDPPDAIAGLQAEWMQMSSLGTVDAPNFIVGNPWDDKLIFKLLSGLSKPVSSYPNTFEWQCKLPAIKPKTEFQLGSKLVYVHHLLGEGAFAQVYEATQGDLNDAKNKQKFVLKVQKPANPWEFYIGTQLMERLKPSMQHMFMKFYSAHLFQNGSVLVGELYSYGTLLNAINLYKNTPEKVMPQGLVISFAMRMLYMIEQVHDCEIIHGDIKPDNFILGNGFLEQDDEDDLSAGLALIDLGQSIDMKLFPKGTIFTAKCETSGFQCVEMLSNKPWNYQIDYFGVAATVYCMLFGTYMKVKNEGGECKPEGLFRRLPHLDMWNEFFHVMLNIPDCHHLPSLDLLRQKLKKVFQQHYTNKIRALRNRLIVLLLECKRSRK

Consider `CCOc1cc(F)c(Cn2nc(-c3ncc(OCCCO)c(Nc4ccncc4C4CC4)n3)c3ccccc32)c(F)c1` [Example 2-1-3, 3-({4-[(3-cyclopropylpyridin-4-yl)amino]-2-[1-(4-ethoxy-2,6-difluorobenzyl)-1H-indazol-3-yl]pyrimidin-5-yl}oxy)propan-1-ol], for which the IC50 in assay [1] was 0.93 nM; in assay [2], 3.7 µM; in assay [3], 54 nM; in assay [4], 0.97 nM; in assay [5] it was 11 nM.

On to `CCOc1cc(F)c(Cn2nc(-c3ncc(OCCCO)c(Nc4ccnc(C)c4)n3)c3ccccc32)c(F)c1` [Example 2-1-4, 3-({2-[1-(4-ethoxy-2,6-difluorobenzyl)-1H-indazol-3-yl]-4-[(2-methylpyridin-4-yl)amino]pyrimidin-5-yl}oxy)propan-1-ol], for which the IC50 in assay [1] is 80 nM; in assay [2], 3 µM; in assay [3], 100 nM; in assay [4] it was 8.4 nM; in assay [5] it was 12 nM.

Take `CCOc1cc(F)c(Cn2nc(-c3ncc(OCCCO)c(Nc4ccnc(C)n4)n3)c3ccccc32)c(F)c1` [Example 2-1-7, 3-({2-[1-(4-ethoxy-2,6-difluorobenzyl)-1H-indazol-3-yl]-4-[(2-methylpyrimidin-4-yl)amino]pyrimidin-5-yl}oxy)propan-1-ol]: the IC50 is 48 nM in assay [1]; above 10 µM in assay [2]; 190 nM in assay [3]; 87 nM in assay [4]; 7 nM in assay [5].

`CCOc1cc(F)c(Cn2nc(-c3ncc(OCCCO)c(Nc4ccncn4)n3)c3ccccc32)c(F)c1` [Example 2-1-9, 3-({2-[1-(4-ethoxy-2,6-difluorobenzyl)-1H-indazol-3-yl]-4-(pyrimidin-4-ylamino)pyrimidin-5-yl}oxy)propan-1-ol]: the IC50 is 33 nM in assay [1]; above 10 µM in assay [2]; 330 nM in assay [3]; 171 nM in assay [4]; 3.8 nM in assay [5].

Take `CCOc1cc(F)c(Cn2nc(-c3ncc(OCCCO)c(Nc4ccnc(F)c4)n3)c3ccccc32)c(F)c1` [Example 2-1-10, 3-({2-[1-(4-ethoxy-2,6-difluorobenzyl)-1H-indazol-3-yl]-4-[(2-fluoropyridin-4-yl)amino]pyrimidin-5-yl}oxy)propan-1-ol]: the IC50 in assay [1] worked out at 23 nM; in assay [2], 9 µM; in assay [3], 1400 nM; in assay [4], 44 nM; in assay [5] it was 15 nM.

For `CCOc1cc(F)c(Cn2nc(-c3ncc(OCCCO)c(Nc4cc(C)ncc4C)n3)c3ccccc32)c(F)c1` [Example 2-1-11, 3-{[4-[(2,5-dimethylpyridin-4-yl)amino]-2-[1-(4-ethoxy-2,6-difluorobenzyl)-1H-indazol-3-yl]pyrimidin-5-yl}oxy)propan-1-ol], the IC50 is 17 nM in assay [1]; 3.2 µM in assay [2]; 260 nM in assay [3]; 26 nM in assay [4]; 21 nM in assay [5].

In the case of `OCCCOc1cnc(-c2nn(Cc3c(F)cc(OCC4CC4)cc3F)c3ccccc23)nc1Nc1ccncc1Cl` [Example 2-1-13, 3-[(4-[(3-chloropyridin-4-yl)amino]-2-{1-[4-(cyclopropylmethoxy)-2,6-difluorobenzyl]-1H-indazol-3-yl}pyrimidin-5-yl)oxy]propan-1-ol], the IC50 in assay [1] turned out to be 64 nM; in assay [2], 3.9 µM; in assay [3], 180 nM; in assay [4] it was 360 nM; in assay [5], 11 nM.

For the molecule `CCOc1cc(F)c(Cn2nc(-c3ncc(OCCCO)c(Nc4cc(C)nc(C)n4)n3)c3ccccc32)c(F)c1` [Example 2-1-14, 3-({4-[(2,6-Dimethylpyrimidin-4-yl)amino]-2-[1-(4-ethoxy-2,6-difluorobenzyl)-1H-indazol-3-yl]pyrimidin-5-yl}oxy)propan-1-ol], the IC50 is 0.92 nM in assay [1]; above 10 µM in assay [2]; 39 nM in assay [3]; 8.7 nM in assay [4]; above 20000 nM in assay [5].

On to `CCOc1cc(F)c(Cn2nc(-c3ncc(OCCCO)c(Nc4ccnc(NC(=O)C5CC5)c4)n3)c3ccccc32)c(F)c1` [Example 2-1-15, N-[4-({2-[1-(4-Ethoxy-2,6-difluorobenzyl)-1H-indazol-3-yl]-5-(3-hydroxypropoxy)pyrimidin-4-yl}amino)pyridin-2-yl]cyclopropancarboxamide], for which the IC50 is 4.6 nM in assay [1]; 3 µM in assay [2]; 140 nM in assay [3]; 37 nM in assay [4]; 8 nM in assay [5].

Consider `CCOc1cc(F)c(Cn2nc(-c3ncc(OCCCO)c(Nc4ccnc(NC(C)=O)c4C)n3)c3ccccc32)c(F)c1` [Example 2-1-17, N-[4-({2-[1-(4-ethoxy-2,6-difluorobenzyl)-1H-indazol-3-yl]-5-(3-hydroxypropoxy)pyrimidin-4-yl}amino)-3-methylpyridin-2-yl]acetamide], for which the IC50 in assay [1] is 3.9 nM; in assay [2], above 10 µM; in assay [3], 200 nM; in assay [4], 1.7 nM; in assay [5], 9.2 nM.

`Cc1nccc(Nc2nc(-c3nn(Cc4c(F)cc(OCC(F)(F)F)cc4F)c4ccccc34)ncc2OCCCO)n1` [Example 2-1-19, 3-[(2-{1-[2,6-difluoro-4-(2,2,2-trifluoroethoxy)benzyl]-1H-indazol-3-yl}-4-[(2-methylpyrimidin-4-yl)amino]pyrimidin-5-yl)oxy]propan-1-ol]: the IC50 in assay [1] was 2.5 nM; in assay [2] it was above 10 µM; in assay [3], 120 nM; in assay [4] it was 3.5 nM; in assay [5], 21 nM.

As to `OCCCOc1cnc(-c2nn(Cc3c(F)cc(OCC(F)(F)F)cc3F)c3ccccc23)nc1Nc1ccncc1Cl` [Example 2-1-20, 3-[(4-[(3-chloropyridin-4-yl)amino]-2-{1-[2,6-difluoro-4-(2,2,2-trifluoroethoxy)benzyl]-1H-indazol-3-yl}pyrimidin-5-yl)oxy]propan-1-ol], the IC50 is above 1000 nM in assay [1]; 6.2 µM in assay [2]; 98 nM in assay [3]; 110 nM in assay [4]; 13 nM in assay [5].

In the case of `Cc1nccc(Nc2nc(-c3nn(Cc4c(F)cc(OCC(F)F)cc4F)c4ccccc34)ncc2OCCCO)n1` [Example 2-1-21, 3-[(2-{1-[4-(2,2-difluoroethoxy)-2,6-difluorobenzyl]-1H-indazol-3-yl}-4-[(2-methylpyrimidin-4-yl)amino]pyrimidin-5-yl)oxy]propan-1-ol], the IC50 in assay [1] was 56 nM; in assay [2], above 10 µM; in assay [3] it was 170 nM; in assay [4] it was 26 nM; in assay [5] it was 11 nM.

On to `Cc1nccc(Nc2nc(-c3nn(Cc4c(F)cc(OCC5CC5)cc4F)c4ccccc34)ncc2OCCCO)n1` [Example 2-1-24, 3-[(2-{1-[4-(cyclopropylmethoxy)-2,6-difluorobenzyl]-1H-indazol-3-yl}-4-[(2-methylpyrimidin-4-yl)amino]pyrimidin-5-yl)oxy]propan-1-ol], for which the IC50 in assay [1] turned out to be 0.85 nM; in assay [2], 9.94 µM; in assay [3], 330 nM; in assay [4], 2.1 nM; in assay [5], 23 nM.

Regarding `OCCCOc1cnc(-c2nn(Cc3c(F)cc(OCC(F)F)cc3F)c3ccccc23)nc1Nc1ccncc1Cl` [Example 2-1-26, 3-[(4-[(3-chloropyridin-4-yl)amino]-2-{1-[4-(2,2-difluoroethoxy)-2,6-difluorobenzyl]-1H-indazol-3-yl}pyrimidin-5-yl)oxy]propan-1-ol], the IC50 in assay [1] was 38 nM; in assay [2] it was 3.79 µM; in assay [3], 64 nM; in assay [4] it was 14 nM; in assay [5], 14 nM.
